From PubChem BioAssay (NCI) come the findings set out here.

Some test systems named below: SK-OV-3 ovarian; U251 CNS; HCT-116 colon; CAKI-1 renal; NCI-H460 lung; SF-539 CNS; MOLT-4 leukemia; HCC-2998 colon.
Assay in all cases: growth of human tumour cells (NCI), 48 h

Structures are written as SMILES.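 Grown in 96-well plates, cells were treated for 48 hours with each compound at five concentrations. Insufficient inhibition: endpoint recorded as highest concentration tested. GI50 is the concentration that inhibits growth by half. TGI: concentration producing complete growth inhibition.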

For `O=C(Nc1ccncc1)C(=O)c1cn(S(=O)(=O)c2cccc(F)c2)c2ccccc12`, the GI50 is 20.3 µM in the test on SK-OV-3 ovarian; 4.38 µM with U251 CNS; 1.38 µM with HCT-116 colon; 3.16 µM in the test with CAKI-1 renal; 13 µM in the test on NCI-H460 lung; 4.41 µM with SF-539 CNS. In addition, the GI50 with MOLT-4 leukemia is 4.18 µM; with HCC-2998 colon, 2.2 µM. Besides, the TGI is 76.5 µM with SK-OV-3 ovarian; more than 100 µM in the test on U251 CNS; more than 100 µM with HCT-116 colon; more than 100 µM in the test with CAKI-1 renal; more than 100 µM with NCI-H460 lung; more than 100 µM in the test with SF-539 CNS. In addition, the figures for the TGI with MOLT-4 leukemia and in the test with HCC-2998 colon were more than 100 µM and 89.3 µM, respectively.
Take `COc1ccc2nc3c(C(=O)NCCN(C)C)cccc3nc2c1`: the TGI in the test with SK-OV-3 ovarian was 47.4 µM; in the test on U251 CNS, 29.5 µM; in the test on HCT-116 colon, 28.1 µM; in the test on CAKI-1 renal it was more than 100 µM; in the test on NCI-H460 lung, more than 1 µM; in the test on SF-539 CNS, 10.9 µM. Moreover, the TGI in the test with MOLT-4 leukemia was more than 100 µM; in the test on HCC-2998 colon, 20 µM.
In the case of `CNC(=O)C1CCc2nnc(-c3ccccc3)n21` (configuration not stated), the TGI with SK-OV-3 ovarian, in the test with U251 CNS, with HCT-116 colon, with CAKI-1 renal, in the test on NCI-H460 lung and in the test with SF-539 CNS was more than 100 µM in each case. The TGI in the test with MOLT-4 leukemia and in the test on HCC-2998 colon was more than 100 µM each time.
Regarding `C=C(C[C@](O)(C(=O)/C=C/c1ccc(Cl)cc1)C(=O)OC)c1ccccc1`, the GI50 was 11.1 µM with SK-OV-3 ovarian; 1.85 µM in the test on U251 CNS; 1.92 µM in the test with HCT-116 colon; 7 µM in the test on CAKI-1 renal; 2.44 µM in the test with NCI-H460 lung; 2.12 µM in the test with SF-539 CNS. In addition, the GI50 in the test on MOLT-4 leukemia was 2.59 µM; in the test on HCC-2998 colon it was 1.84 µM. Besides, the TGI with SK-OV-3 ovarian is 23.1 µM; in the test on U251 CNS it was 3.74 µM; with HCT-116 colon, 3.96 µM; with CAKI-1 renal, 20.7 µM; with NCI-H460 lung it was 6.31 µM; in the test on SF-539 CNS, 4.93 µM. Moreover, the TGI was 8.35 µM with MOLT-4 leukemia and 3.42 µM in the test on HCC-2998 colon.
For `CS(=O)(=O)CCNCc1ccc(-c2ccc3ncnc(Nc4ccc(OCc5ccccc5)cc4)c3c2)o1`, the GI50 in the test on SK-OV-3 ovarian was 0.401 µM; in the test with U251 CNS it was 6.2 µM; with HCT-116 colon, 5.99 µM; in the test with CAKI-1 renal it was 2.04 µM; in the test with NCI-H460 lung, 3.73 µM; in the test on SF-539 CNS it was 4.91 µM. Besides, the GI50 in the test on MOLT-4 leukemia is 9.31 µM; in the test on HCC-2998 colon it was 5.26 µM. Moreover, the TGI with SK-OV-3 ovarian was more than 25 µM; in the test with U251 CNS, more than 25 µM; in the test with HCT-116 colon it was more than 17 µM; with CAKI-1 renal, more than 25 µM; in the test on NCI-H460 lung, more than 25 µM; with SF-539 CNS, 11 µM. Moreover, the TGI in the test on MOLT-4 leukemia is more than 25 µM; in the test on HCC-2998 colon, 12.1 µM.
For `COc1ccc(N2C(=O)/C(=C/c3ccc(N(CCC#N)CCC#N)cc3C)N=C2c2cc([N+](=O)[O-])ccc2Cl)cc1`, the TGI in the test on SK-OV-3 ovarian was more than 63.1 µM; in the test with U251 CNS, 43.3 µM; with HCT-116 colon it was 29.3 µM; with CAKI-1 renal it was more than 36.3 µM; in the test on NCI-H460 lung, more than 56.2 µM; in the test on SF-539 CNS, 7.22 µM. In addition, the values for the TGI with MOLT-4 leukemia and in the test with HCC-2998 colon were 53.5 µM and 15.2 µM, respectively.
With `Cc1ccc(C(=O)NC(C)C)cc1-c1ccc(C(=O)NCC2CC2)cc1`, the GI50 with SK-OV-3 ovarian, in the test with U251 CNS, in the test with HCT-116 colon, in the test with CAKI-1 renal, in the test on NCI-H460 lung and with SF-539 CNS was more than 25 µM throughout. The GI50 in the test on MOLT-4 leukemia and with HCC-2998 colon was more than 25 µM each time. The TGI in the test with SK-OV-3 ovarian, with U251 CNS, in the test with HCT-116 colon, in the test with CAKI-1 renal, in the test with NCI-H460 lung and with SF-539 CNS was more than 25 µM each time. The TGI with MOLT-4 leukemia and in the test with HCC-2998 colon was more than 25 µM each time.
For the compound `CCOC1Oc2ccc(C)cc2C(=O)/C1=C\Nc1ccc(C(N)=O)cc1` (configuration not stated), the GI50 in the test with SK-OV-3 ovarian was 21.1 µM; with U251 CNS, 13.2 µM; in the test on HCT-116 colon, 13.4 µM; with CAKI-1 renal, 20.6 µM; with NCI-H460 lung, 33.3 µM; in the test with SF-539 CNS it was 18.4 µM. In addition, the values for the GI50 with MOLT-4 leukemia and with HCC-2998 colon were 46.2 µM and 20.3 µM, respectively. The TGI in the test on SK-OV-3 ovarian was more than 100 µM; in the test with U251 CNS it was 34.2 µM; in the test with HCT-116 colon, 26.2 µM; in the test on CAKI-1 renal it was 44.8 µM; in the test on NCI-H460 lung it was more than 100 µM; with SF-539 CNS it was 53.2 µM. In addition, the TGI with MOLT-4 leukemia was more than 100 µM; with HCC-2998 colon it was 39 µM.
For the compound `O=C(Nc1ccc(-c2nc(N3CCOCC3)c3cccn3n2)cc1)Nc1cccnc1`, the GI50 in the test with SK-OV-3 ovarian is 0.0987 µM; in the test with U251 CNS it was 0.18 µM; with HCT-116 colon, 0.041 µM; with CAKI-1 renal, 0.185 µM; with NCI-H460 lung it was 0.142 µM; in the test on SF-539 CNS it was 0.0396 µM. For the same compound, the GI50 in the test with MOLT-4 leukemia was 0.23 µM; in the test on HCC-2998 colon, 0.253 µM. For the same compound, the TGI in the test with SK-OV-3 ovarian is 0.596 µM; in the test on U251 CNS it was more than 100 µM; with HCT-116 colon, 27.7 µM; in the test with CAKI-1 renal it was 3.85 µM; in the test on NCI-H460 lung it was more than 100 µM; with SF-539 CNS, 0.296 µM. Further, the figures for the TGI with MOLT-4 leukemia and with HCC-2998 colon were 6.8 µM and more than 100 µM, respectively.
Take `O=C(CCc1nnc2sc(-c3ccc(Cl)cc3Cl)nn12)c1nc2ccccc2[nH]1`: the GI50 is 1.77 µM with SK-OV-3 ovarian; 0.932 µM in the test on U251 CNS; 0.247 µM with HCT-116 colon; 2.22 µM with CAKI-1 renal; 0.988 µM in the test on NCI-H460 lung; 1.98 µM in the test on SF-539 CNS. The GI50 with MOLT-4 leukemia was 0.29 µM; in the test with HCC-2998 colon it was 1.42 µM. Moreover, the TGI turned out to be 3.46 µM in the test on SK-OV-3 ovarian; 2.26 µM in the test on U251 CNS; 0.692 µM in the test on HCT-116 colon; 5.45 µM in the test with CAKI-1 renal; 2.39 µM in the test on NCI-H460 lung; 4.63 µM with SF-539 CNS. In addition, the TGI with HCC-2998 colon is 2.92 µM.
On to `COc1ccc(-c2nc(-c3nc4ccc(Cl)cc4[nH]3)c3ccccn23)cc1`, for which the GI50 in the test with SK-OV-3 ovarian was 2.24 µM; in the test on U251 CNS, 3.16 µM; with HCT-116 colon, 2.41 µM; in the test with CAKI-1 renal, 2.09 µM; in the test on NCI-H460 lung, 2.23 µM; in the test on SF-539 CNS, 1.76 µM. For the same compound, the GI50 in the test on MOLT-4 leukemia was more than 100 µM; in the test on HCC-2998 colon, 18.6 µM. The TGI in the test on SK-OV-3 ovarian was 4.99 µM; in the test on U251 CNS, 11.3 µM; with HCT-116 colon it was 5.5 µM; with CAKI-1 renal it was 5.03 µM; in the test with NCI-H460 lung, 5.29 µM; in the test on SF-539 CNS, 3.61 µM. For the same compound, the TGI in the test on MOLT-4 leukemia and in the test with HCC-2998 colon was more than 100 µM in each case.
Take `Cc1ccc(NC(=O)CC(=O)n2nc(C)c(N=Nc3ccccc3C(=O)O)c2C)cc1`: the TGI in the test with SK-OV-3 ovarian, in the test with U251 CNS, with HCT-116 colon, in the test with CAKI-1 renal, in the test on NCI-H460 lung and in the test with SF-539 CNS was more than 100 µM throughout. Further, the TGI with MOLT-4 leukemia and in the test with HCC-2998 colon was more than 100 µM each time.
With `NC12CC3CC(C1)CC(C(=O)O)(C3)C2`, the TGI with SK-OV-3 ovarian, in the test on U251 CNS, with HCT-116 colon, in the test on CAKI-1 renal, in the test on NCI-H460 lung and with SF-539 CNS was more than 100 µM throughout. For the same compound, the TGI with MOLT-4 leukemia and with HCC-2998 colon was more than 100 µM in each case.
Take `CC(SC(=S)N1CCOCC1)c1cc2oc(=O)n(C)c2cc1Cl` (configuration not stated): the TGI in the test on SK-OV-3 ovarian, in the test with U251 CNS, in the test on HCT-116 colon, in the test with CAKI-1 renal, in the test on NCI-H460 lung and in the test on SF-539 CNS was more than 100 µM in each case. The TGI in the test on MOLT-4 leukemia and in the test on HCC-2998 colon was more than 100 µM in each case.
Take `CCC[CH2][Sn]1([CH2]CCC)[O]C(=O)CN=Cc2c(ccc3ccccc23)[O]1`: the GI50 is 1.11 µM in the test with SK-OV-3 ovarian; 0.351 µM with U251 CNS; 1.04 µM in the test on HCT-116 colon; 0.0629 µM with CAKI-1 renal; 1.36 µM in the test with NCI-H460 lung; 1.51 µM in the test with SF-539 CNS. For the same compound, the results for the GI50 in the test with MOLT-4 leukemia and in the test with HCC-2998 colon were 0.319 µM and 0.777 µM, respectively. The TGI in the test on SK-OV-3 ovarian was 2.31 µM; in the test with U251 CNS, 1.2 µM; in the test on HCT-116 colon, 2.32 µM; in the test with CAKI-1 renal it was 0.593 µM; in the test with NCI-H460 lung, 2.75 µM; with SF-539 CNS, more than 100 µM. The TGI in the test on MOLT-4 leukemia is 1.14 µM; with HCC-2998 colon, 2.02 µM.
Consider `CC/C=C\C[C@@H](O)C/C=C1/C(=O)C=C[C@H]1C/C=C\CCCC(=O)OC`, for which the GI50 was 6.49 µM with SK-OV-3 ovarian; 3.18 µM in the test with U251 CNS; 0.498 µM with HCT-116 colon; 3.57 µM with CAKI-1 renal; 3.45 µM in the test with NCI-H460 lung; 3.22 µM in the test on SF-539 CNS. Besides, the values for the GI50 in the test on MOLT-4 leukemia and with HCC-2998 colon were 2.06 µM and 2.1 µM, respectively. In addition, the TGI stood at 19 µM in the test on SK-OV-3 ovarian; 10.5 µM in the test on U251 CNS; 2.53 µM in the test on HCT-116 colon; 13.5 µM in the test on CAKI-1 renal; 11.8 µM in the test with NCI-H460 lung; 11.9 µM with SF-539 CNS. The TGI turned out to be 5.83 µM in the test with MOLT-4 leukemia and 3.61 µM in the test on HCC-2998 colon.
